In test [1] the test system is HCT-116 cells. As to the kind of experiment: Cell cycle analysis with propidium iodide (PI FACS). The test is classed as cell-based, human. The note with it: HCT-116, 24, 48 and 72 hours. How it is done: The percentage of cells in the G1, S and G2/M phases of the cell cycle was determined by staining DNA with propidium iodide and quantifying the number of cells with a 2N or 4N DNA complement by flow cytometry. Alterations in the distribution of cells across the cell cycle in response to exposure to the Cdk inhibitors was evaluated in this marmer.
3 sets of HCT-116 cells (100,000 cells/set) were cultured in the presence of a test compound in T-25 flasks according to Table 1 below. Analysis was performed at 24, 48 and 72 hours. Adherent cells were collected by trypsinization, combined with floating cells in Falcon 12×75 flow cytometric tubes, and harvested by centrifugation. The media was decanted from the cell pellet, 100 μl of PI stain was added and the cells were incubated at 37° C. for 20-25 minutes. The cell count was preferably no greater than 2×10^6-4×10^6/ml. An equal volume (100 μl) of PI salt was then added to the cells, which were then incubated at 4° C. for 1-2 hours. The stained cells were analyzed on a Becton Dickinson FACScan flow cytometer. Samples were protected from light.

Test [2] has as its target T1, Cdk2/cyclin E (Homo sapiens, UniProt P24941).
T1 construct: made in house; host or cells: Sf9 insect cells
As to the kind of experiment: Biochemical kinase assay Cdk2/cyclin E. The note with it: Table 6. Summed up:
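Sf9-expressed Cdk/cyclin heterodimers phosphorylate GST-Rb (residues 379–928, 40 μg) with 50 μM ATP plus [γ-33P]ATP, pH 7.5, 10% DMSO, 15 min at 30 °C. Compounds 1 nM–10 μM. 33P captured on glutathione-sepharose and scintillation-counted; activity relative to DMSO control after EDTA-background subtraction.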

For test [3], the system named is adriamycin resistant cell line (ADR-res). As to the kind of experiment: NCI panel (SRB), adriamycin resistant cell line. The test is classed as cell-based. The note with it: Homo sapiens. The text has this:
The evaluation of compounds at the National Cancer Institute in their panel of 60 cell lines provides a wealth of information regarding efficacy in a wide range of tumor types and genetic backgrounds. Included within this panel are cell lines derived from leukemia, melanoma and cancers of the lung, colon, brain, ovary, breast, prostate and kidney. Use of this panel provides a measure of the efficacy of compounds in cells with alterations in many genes that are associated with neoplastic transformation including p53 and Her2/Neu as well as those involved in metabolism and those which confer multi-drug resistance. The data generated in these cell lines with the protocol described below can be used to evaluate the activity of compounds.
Cells were grown in RPMI-1640 10% FCS and plated in 96 well micro-titer plates at densities ranging from 5,000 to 40,000 cells/well. The plates were incubated for 24 hours at 37° C., 5% CO2 for 24 hours. […]
The effect of the compound on cellular viability was determined with the Sulforhodamine B (SRB) assay, which measures total protein. […] The bound stain was solubilized with 10 mM trizma base and the absorbance was read on a plate reader at […].

In test [4] the test system is HCT-116 cells. As to the kind of experiment: BrdU incorporation assay. The test is classed as cell-based. The note with it: Homo sapiens, read-out: Brd U, concentration that inhibits BrdU incorporation by 50%. How it is done:
This method measured the percentage of cells that incorporated the nucleotide analog, BrdU, into newly synthesized DNA as cells progressed through the S phase of the cell cycle. The inhibition of BrdU incorporation was used as a measure of a Cdk inhibitor's effect on S phase progression and DNA replication.
3 sets of HCT-116 cells (100,000 cells/set) were plated in T25 flasks and incubated with a test compound as above. Analysis was done at 24, 48, and 72 hours. BrdU was added to each T-25 flask from a stock of 10 mg/ml to a final concentration of 10 μM and the cells were incubated for an additional 16-18 hours at 37° C. The cells were then prepared for flow cytometric analysis according to manufacturer's protocol (BrdU Flow kit, BD-Pharmingen catalogue #2354KK) as follows:
Cells were harvested (adherent and floating) from the T25 flasks directly into Falcon 12×75 flow cytometric tubes as above followed by fixation and permeabilization with the addition of 100 μl of Cytofix/Cytoperm buffer (30 minutes, room temperature). The cells were then washed with 1 ml of Perm Wash buffer and the cell pellets were resuspended in 100 μl Cytoperm Plus buffer and incubated on ice for 10 minutes. The cells were then washed again with 1 ml of Perm Wash buffer and the fixation was repeated in 100 μl of Cytofix/Cyto Perm buffer for 10 minutes at room temperature. The cells were then washed with 1 ml of Perm Wash buffer. The cells were next treated for one hour at 37° C. with 100 μl DNase to expose incorporated BrdU followed by another wash step with 1 ml of Perm Wash buffer. […] Cells were protected from light and incubated at room temperature for 20-30 minutes. Following the incubation, the cells were washed with 1 ml of Perm Wash buffer, resuspended in 300 μl of 2% FBS in PBS, and analyzed on the flow cytometer. Results are presented in Table 2 as the concentration of compound (μM) that inhibits of BrdU incorporation by 50%.

Where two headings read alike, the source gives them in different places. Some results are limits rather than exact numbers.

Regarding `CC(C)N1CCN(C(=O)COc2ccc(-c3[nH]nc4c3C(=O)c3c(NC(=O)NN5CCOCC5)cccc3-4)cc2)CC1.Cl` [Compound A37], the “Effect on cell cycle distribution (PI staining)” value in test [1] was “cells are terminally arrested in G1 and G2, with evidence of apoptosis and endo-reduplication”. The IC50 in test [2] is below 100 nM.
On to `COCCN1CCN(Cc2ccc(-c3[nH]nc4c3C(=O)c3c(NC(=O)NN5CCOCC5)cccc3-4)cc2)CC1.Cl.Cl` [Compound B16, N-[3-(4-{[4-(2-methoxyethyl)piperazinyl]methyl}phenyl)-4-oxoindeno[2,3-d]pyrazol-5-yl](morpholin-4-ylamino)carboxamide dihydrochloride], for which the “Effect on cell cycle distribution (PI staining)” value in test [1] was “Analogous results”. The same compound yielded an IC50 in test [2] below 10 nM.
With `CC(C)c1nn(-c2c(Cl)cccc2Cl)c2nc(Cc3ccc(O)c(CN4CCN(C(C)C)CC4)c3)[nH]c(=O)c12` [Compound C], the IC50 was below 100 nM in test [3]; below 100 nM in test [4] (HCT-116, 24 h); below 100 nM in test [4] (HCT-116, 48 h).

The values above are taken from US7605175B2, “Inhibitors of cyclin-dependent kinases, compositions and uses related thereto” (GPC Biotech AG, priority 2001, dated 2009).
